Experimental data: US20250163064A1, “QUINAZOLINE COMPOUNDS AND USES THEREOF AS INHIBITORS OF MUTANT KRAS PROTEINS” (AMGEN INC., priority 2022, published 2025)
Like-named read-outs stand apart in the source and are kept apart here.

Key:
[1] = system: Phosphorylation of ERK1/2 in AsPC-1 cells; test: Phospho-ERK1/2 MSD Assay; type: cell-based
Procedure: AsPC-1 (ATCC® CRL-1682TM) cells were cultured in RPMI 1640 Medium (ThermoFisher Scientific 11875093) containing 10% fetal bovine serum (ThermoFisher Scientific 16000044) and 1× penicillin-streptomycin-glutamine (ThermoFisher Scientific 10378016). Sixteen hours prior to compound treatment, AsPC-1 cells were seeded in 96-well cell culture plates at a density of 25,000 cells/well and incubated at 37° C., 5% CO2. A compound dose-response titration was diluted in growth media, added to appropriate wells of a cell culture plate, and then incubated at 37° C., 5% CO2 for 2 hours. Following compound treatment, cells were washed with ice-cold Dulbecco's phosphate-buffered saline, no Ca^2+ or Mg^2+ (ThermoFisher Scientific 14190144), and then lysed in RIPA buffer (50 mM Tris-HCl pH 7.5, 1% Igepal, 0.5% sodium deoxycholate, 150 mM NaCl, and 0.5% sodium dodecyl sulfate) containing protease inhibitors (Roche 4693132001) and phosphatase inhibitors (Roche 4906837001). Phosphorylation of ERK1/2 in compound-treated lysates was assayed using Phospho-ERK1/2 Whole Cell Lysate kits (Meso Scale Discovery K151DWD) according to the manufacturer's protocol. Assay plates were read on a Meso Scale Discovery Sector Imager 6000, and data were analyzed using a 4-parameter logistic model to calculate IC50 values.

[2] = target: GDP-bound KRAS protein (aa 1-169), G12D and C118A; SOS-mediated nucleotide exchange (Homo sapiens (Human), UniProt P01116, C118A/G12D); test: KRAS G12D Coupled Nucleotide Exchange Assay; type: biochemical; conditions: 2 h compound pre-incubation, GTP, cRAF AlphaScreen
Procedure: Purified GDP-bound KRAS protein (aa 1-169), containing both G12D and C118A amino acid substitutions and an N-terminal His-tag, was pre-incubated in assay buffer (25 mM HEPES pH 7.4, 10 mM MgCl2, and 0.01% Triton X-100) with a compound dose-response titration for 2 h. Following compound pre-incubation, purified SOS protein (aa 564-1049) and GTP (Roche 10106399001) were added to the assay wells and incubated for an additional 30 min. […] The assay plates were then read on a PerkinElmer En Vision Multilabel Reader, using AlphaScreen® technology, and data were analyzed using a 4-parameter logistic model to calculate IC50 values.

[3] = target: His-tagged KRAS G12D protein (Homo sapiens (Human), UniProt P01116, G12D); test: KRAS G12D TR-FRET Assay; type: binding; conditions: biotinylated KRPep-2d, 10 μM GDP
Procedure: Compounds of interest were prepared in a dose-response titration in DMSO, and 80 nL were added via Labcyte Echo to each well of a 384-well plate (Perkin Elmer 6008280). The His-tagged KRAS G12D protein (Amgen) was diluted to 20 nM in Assay Buffer (20 mM HEPES, pH 7.4, 10 mM MgCl2, 50 mM NaCl, 0.1% BSA, 0.01% Tween-20, 10 μM GDP) and 2 μL was added to the appropriate wells of the 384-well plate. The plate was incubated for 30 minutes at rt. Biotinylated KRPep-2d substrate (Amgen) was diluted to […] in Assay Buffer and 2 AL was added to all wells and incubated for 1 hour at room temperature. Detection Reagent (0.4 nM LANCE Eu-W1024 Anti-6×His (Perkin Elmer AD0401), 5 nM streptavidin-d2 (Cisbio 610SADLA)) was prepared in Assay Buffer, then 4 AL was added to the plate and incubated for 1 h at rt. Plates were read using PerkinElmer En Vision (ex: 320 nm, em1: 665 nm, em2: 615 nm) and em1/em2 data was used to generate curve fits using a 4-parameter logistic model to calculate IC50 values.

[4] = Homo sapiens, ASPC1, 2 h, read-out: 2 h p-ERK (AsPC-1 cells), IC50 (μM), AsPC-1 cells, 2 h compound treatment
[5] = read-out: 2 h p-ERK (AsPC-1 cells), IC50, AsPC-1 cells, 2 h compound treatment

Sequence of His-tagged KRAS G12D protein (P01116-2 other isoform, or with tags, fused parts or gaps G12D): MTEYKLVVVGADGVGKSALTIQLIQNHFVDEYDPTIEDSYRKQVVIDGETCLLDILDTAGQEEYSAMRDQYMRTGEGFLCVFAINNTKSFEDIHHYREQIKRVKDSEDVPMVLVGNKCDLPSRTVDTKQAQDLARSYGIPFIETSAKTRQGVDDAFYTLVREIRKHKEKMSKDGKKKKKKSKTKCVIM
Sequence of GDP-bound KRAS protein (aa 1-169), G12D and C118A; SOS-mediated nucleotide exchange (P01116 other isoform, or with tags, fused parts or gaps G12D/C118A): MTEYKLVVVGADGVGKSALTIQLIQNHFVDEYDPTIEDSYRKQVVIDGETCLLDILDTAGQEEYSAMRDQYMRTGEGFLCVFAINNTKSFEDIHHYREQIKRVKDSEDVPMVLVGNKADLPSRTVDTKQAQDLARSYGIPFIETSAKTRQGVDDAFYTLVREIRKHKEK

An IC50 [1, 4] of 0.264 µM was found for N#Cc1c(N)sc2c(F)ccc(-c3c(Cl)cc4c(N5CC6CC(O)C(C6)C5)nc(OC[C@@]56CCCN5C[C@H](F)C6)nc4c3F)c12 (mixture of isomers) [Example 7, 2-Amino-4-(6-chloro-8-fluoro-2-(((2R,7aS)-2-fluorotetrahydro-1H-pyrrolizin-7a(5H)-yl)methoxy)-4-(rac-(1R,5R,6R)-6-hydroxy-3-azabicyclo[3.2.1]octan-3-yl)quinazolin-7-yl)-7-fluorobenzo[6] thiophene-3-carbonitrile] in this work.

An IC50 [2] of 2 nM, an IC50 [1, 4] of 0.013 µM and an IC50 [3] of 2 nM were found for N#Cc1c(N)sc2c(F)ccc(-c3c(Cl)cc4c(N5CCCOCCC5)nc(OC[C@@]56CCCN5C[C@H](F)C6)nc4c3F)c12 (single isomer, unassigned) [Example 18] in this work.

An IC50 [2] of 2 nM, an IC50 [1, 5] of 0.013 µM and an IC50 [3] of 2 nM were found for CC1(O)COCCN(c2nc(OC[C@@]34CCCN3C[C@H](F)C4)nc3c(F)c(-c4ccc(F)c5sc(N)c(C#N)c45)c(Cl)cc23)C1 (single isomer, unassigned) [Example 22] in this work.

An IC50 [2] of 2 nM, an IC50 [1, 5] of 0.185 µM and an IC50 [3] of 3 nM were found for CC1(O)COCCN(c2nc(OC[C@@]34CCCN3C[C@H](F)C4)nc3c(F)c(-c4ccc(F)c5sc(N)c(C#N)c45)c(Cl)cc23)C1 (single isomer, unassigned) [Example 24] in this work.

An IC50 [2] of 5 nM, an IC50 [1, 4] of 0.097 µM and an IC50 [3] of 3 nM were found for CC1(O)CCCCN(c2nc(OC[C@@]34CCCN3C[C@H](F)C4)nc3c(F)c(-c4ccc(F)c5sc(N)c(C#N)c45)c(Cl)cc23)C1 (single isomer, unassigned) [Example 28] in this work.

An IC50 [2] of 3 nM, an IC50 [1, 5] of 0.032 µM and an IC50 [3] of 2 nM were found for CCC1(O)COCCN(c2nc(OC[C@@]34CCCN3C[C@H](F)C4)nc3c(F)c(-c4ccc(F)c5sc(N)c(C#N)c45)c(Cl)cc23)C1 (single isomer, unassigned) [Example 44] in this work.

An IC50 [2] of 5 nM, an IC50 [1, 5] of 0.185 µM and an IC50 [3] of 6 nM were found for CCC1(O)COCCN(c2nc(OC[C@@]34CCCN3C[C@H](F)C4)nc3c(F)c(-c4ccc(F)c5sc(N)c(C#N)c45)c(Cl)cc23)C1 (single isomer, unassigned) [Example 45] in this work.

An IC50 [2] of 3 nM, an IC50 [1, 4] of 0.148 µM and an IC50 [3] of 6 nM were found for N#Cc1c(N)sc2c(F)ccc(-c3c(Cl)cc4c(N5CCOCC(O)(C(F)F)C5)nc(OC[C@@]56CCCN5C[C@H](F)C6)nc4c3F)c12 (single isomer, unassigned) [Example 46] in this work.

An IC50 [2] of 1 nM, an IC50 [1, 4] of 0.078 µM and an IC50 [3] of 3 nM were found for N#Cc1c(N)sc2c(F)ccc(-c3c(Cl)cc4c(N5CCOCC(F)C5)nc(OC[C@@]56CCCN5C[C@H](F)C6)nc4c3F)c12 (single isomer, unassigned) [Example 58] in this work.

An IC50 [2] of 2 nM, an IC50 [1, 5] of 0.062 µM and an IC50 [3] of 5 nM were found for N#Cc1c(N)sc2c(F)ccc(-c3c(Cl)cc4c(N5CCOCC(F)C5)nc(OC[C@@]56CCCN5C[C@H](F)C6)nc4c3F)c12 (single isomer, unassigned) [Example 59] in this work.

An IC50 [2] of 7 nM, an IC50 [1, 4] of 0.292 µM and an IC50 [3] of 8 nM were found for CC1(O)COCCN(c2nc(OCC34CCCN3CC(F)(F)C4)nc3c(F)c(-c4ccc(F)c5sc(N)c(C#N)c45)c(Cl)cc23)C1 (single isomer, unassigned) [Example 60, 2-Amino-4-(6-chloro-2-((2,2-difluorotetrahydro-1H-pyrrolizin-7a(5H)-yl)methoxy)-8-fluoro-4-(6-hydroxy-6-methyl-1,4-oxazepan-4-yl)quinazolin-7-yl)-7-fluorobenzo[b] thiophene-3-carbonitrile] in this work.

An IC50 [1, 4] of 0.052 µM was found for N#Cc1c(N)sc2c(F)ccc(-c3c(Cl)cc4c(N5CCCCCC5)nc(OC[C@@]56CCCN5C[C@H](F)C6)nc4c3F)c12 [Example 1, 2-Amino-4-(4-(azepan-1-yl)-6-chloro-8-fluoro-2-(((2R,7aS)-2-fluorotetrahydro-1H-pyrrolizin-7a(5H)-yl)methoxy)quinazolin-7-yl)-7-fluorobenzo[b]thiophene-3-carbonitrile] in this work.

An IC50 [1, 4] of 0.105 µM was found for N#Cc1c(N)sc2c(F)ccc(-c3c(Cl)cc4c(N5CCCC(C#N)CC5)nc(OC[C@@]56CCCN5C[C@H](F)C6)nc4c3F)c12 (stereo partly drawn) [Example 3, 1-(7-(2-Amino-3-cyano-7-fluorobenzo[b]thiophen-4-yl)-6-chloro-8-fluoro-2-(((2R,7a.S)-2-fluorotetrahydro-1H-pyrrolizin-7a(5H)-yl)methoxy)quina-zolin-4-yl)azepane-4-carbonitrile] in this work.

An IC50 [1, 4] of 0.041 µM was found for N#Cc1c(N)sc2c(F)ccc(-c3c(Cl)cc4c(N5CCCC[C@@H](O)C5)nc(OC[C@@]56CCCN5C[C@H](F)C6)nc4c3F)c12 [Example 4, 2-Amino-4-(6-chloro-8-fluoro-2-(((2R,7aS)-2-fluorotetrahydro-1H-pyrrolizin-7a(5H)-yl)methoxy)-4-((R)-3-hydroxyazepan-1-yl)quinazolin-7-yl)-7-fluorobenzo[b] thiophene-3-carbonitrile] in this work.

An IC50 [2] of 4 nM, an IC50 [1, 4] of 0.097 µM and an IC50 [3] of 3 nM were found for N#Cc1c(N)sc2c(F)ccc(-c3c(Cl)cc4c(N5CCCC[C@H](O)C5)nc(OC[C@@]56CCCN5C[C@H](F)C6)nc4c3F)c12 [Example 5, 2-Amino-4-(6-chloro-8-fluoro-2-(((2R,7a.S)-2-fluorotetrahydro-1H-pyrrolizin-7a(5H)-yl)methoxy)-4-((S)-3-hydroxyazepan-1-yl)quinazolin-7-yl)-7-fluorobenzo[b] thiophene-3-carbonitrile] in this work.

An IC50 [1, 4] of 0.143 µM was found for N#Cc1c(N)sc2c(F)ccc(-c3c(Cl)cc4c(N5CCOCC(=O)C5)nc(OC[C@@]56CCCN5C[C@H](F)C6)nc4c3F)c12 [Example 6, 2-Amino-4-(6-chloro-8-fluoro-2-(((2R,7aS)-2-fluorotetrahydro-1H-pyrrolizin-7a(5H)-yl)methoxy)-4-(6-oxo-1,4-oxazepan-4-yl)quinazolin-7-yl)-7-fluorobenzo[b] thiophene-3-carbonitrile] in this work.

An IC50 [1, 4] of 0.015 µM was found for N#Cc1c(N)sc2c(F)ccc(-c3c(Cl)cc4c(N5CCCCC(=O)C5)nc(OC[C@@]56CCCN5C[C@H](F)C6)nc4c3F)c12 [Example 8, 2-Amino-4-(6-chloro-8-fluoro-2-(((2R,7aS)-2-fluorotetrahydro-1H-pyrrolizin-7a(5H)-yl)methoxy)-4-(3-oxoazepan-1-yl)quinazolin-7-yl)-7-fluorobenzo[b] thiophene-3-carbonitrile] in this work.

An IC50 [1, 4] of 0.768 µM was found for N#Cc1c(N)sc2c(F)ccc(-c3c(Cl)cc4c(N5CCCC6(CNC(=O)O6)C5)nc(OC[C@@]56CCCN5C[C@H](F)C6)nc4c3F)c12 (stereo partly drawn) [Example 17, 2-Amino-4-(6-chloro-8-fluoro-2-(((2R,7aS)-2-fluorotetrahydro-1H-pyrrolizin-7a(5H)-yl)methoxy)-4-(2-oxo-1-oxa-3,7-diazaspiro[4.5]decan-7-yl)quinazolin-7-yl)-7-fluorobenzo[b] thiophene-3-carbonitrile] in this work.

An IC50 [1, 4] of 0.081 µM was found for N#Cc1c(N)sc2c(F)ccc(-c3c(Cl)cc4c(N5CCC=CC(O)C5)nc(OC[C@@]56CCCN5C[C@H](F)C6)nc4c3F)c12 (stereo partly drawn) [Example 29, 2-Amino-4-(6-chloro-8-fluoro-2-(((2R,7aS)-2-fluorotetrahydro-1H-pyrrolizin-7a(5H)-yl)methoxy)-4-(3-hydroxy-2,3,6,7-tetrahydro-1H-azepin-1-yl)quinazolin-7-yl)-7-fluorobenzo[b] thiophene-3-carbonitrile] in this work.
